# Laboratory results as given in ChEMBL document CHEMBL1146259, “Structure-activity relationships of the ultrapotent vanilloid resiniferatoxin (RTX): the homovanillyl moiety” (Bioorg Med Chem Lett, 2007).
# Target: Transient receptor potential cation channel subfamily V member 1 (Homo sapiens, UniProt Q8NER1)
# Assay: Agonist activity at human recombinant TRPV1 expressed in human HEK293 cells
# Type: functional, cell-based
# Chain of Transient receptor potential cation channel subfamily V member 1 (Q8NER1 whole entry): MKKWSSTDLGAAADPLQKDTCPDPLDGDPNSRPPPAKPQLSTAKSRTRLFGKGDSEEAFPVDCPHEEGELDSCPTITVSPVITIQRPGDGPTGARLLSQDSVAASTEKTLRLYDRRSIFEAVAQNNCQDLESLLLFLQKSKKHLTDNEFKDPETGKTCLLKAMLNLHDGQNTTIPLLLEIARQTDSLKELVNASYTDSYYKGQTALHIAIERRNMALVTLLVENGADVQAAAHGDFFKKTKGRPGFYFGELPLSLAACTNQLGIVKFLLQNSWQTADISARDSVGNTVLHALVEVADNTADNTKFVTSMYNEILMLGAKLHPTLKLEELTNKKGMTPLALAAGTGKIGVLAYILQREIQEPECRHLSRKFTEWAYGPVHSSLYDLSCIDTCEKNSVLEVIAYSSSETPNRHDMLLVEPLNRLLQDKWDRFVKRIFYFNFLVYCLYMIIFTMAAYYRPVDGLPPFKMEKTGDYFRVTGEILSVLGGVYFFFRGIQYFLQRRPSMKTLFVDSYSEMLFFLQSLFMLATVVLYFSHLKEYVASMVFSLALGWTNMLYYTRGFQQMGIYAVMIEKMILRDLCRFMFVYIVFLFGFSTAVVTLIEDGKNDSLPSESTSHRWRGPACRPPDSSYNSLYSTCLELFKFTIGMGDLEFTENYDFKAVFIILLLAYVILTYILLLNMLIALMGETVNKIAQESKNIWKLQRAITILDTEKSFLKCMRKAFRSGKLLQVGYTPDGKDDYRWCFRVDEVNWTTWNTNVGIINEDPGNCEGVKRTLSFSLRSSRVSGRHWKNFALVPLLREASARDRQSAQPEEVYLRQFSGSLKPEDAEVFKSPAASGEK
row,SMILES,EC50 [nM]
1,C=C(C)[C@]12C[C@@H](C)[C@@]3(OCc4ccccc4)[C@@H](C=C(COC(=O)CCc4ccc(O)c(OC)c4)C[C@]4(O)C(=O)C(C)=C[C@@H]34)[C@H]1OCO2,4.6
2,C=C(C)[C@]12C[C@@H](C)[C@@]3(OCc4ccccc4)[C@@H](C=C(COC(=O)CCc4cc(I)c(O)c(OC)c4)C[C@]4(O)C(=O)C(C)=C[C@@H]34)[C@H]1OCO2,8.6
3,C=C(C)[C@]12C[C@@H](C)[C@@]3(OCc4ccccc4)[C@@H](C=C(COC(=O)CCc4ccccc4)C[C@]4(O)C(=O)C(C)=C[C@@H]34)[C@H]1OCO2,51.5
4,C=C(C)[C@]12C[C@@H](C)[C@@]3(OCc4ccccc4)[C@@H](C=C(COC(=O)c4cc(I)c(O)c(OC)c4)C[C@]4(O)C(=O)C(C)=C[C@@H]34)[C@H]1OCO2,1.9
5,C=C(C)[C@]12C[C@@H](C)[C@@]3(OCc4ccccc4)[C@@H](C=C(COC(=O)CCc4cc(OC)c(O)cc4I)C[C@]4(O)C(=O)C(C)=C[C@@H]34)[C@H]1OCO2,7.9
6,C=C(C)[C@]12C[C@@H](C)[C@@]3(OCc4ccccc4)[C@@H](C=C(COC(=O)Cc4ccccc4)C[C@]4(O)C(=O)C(C)=C[C@@H]34)[C@H]1OCO2,4.7
7,C=C(C)[C@]12C[C@@H](C)[C@@]3(OCc4ccccc4)[C@@H](C=C(COC(=O)c4ccc(O)c(OC)c4)C[C@]4(O)C(=O)C(C)=C[C@@H]34)[C@H]1OCO2,9.4
8,C=C(C)[C@]12C[C@@H](C)[C@@]3(OCc4ccccc4)[C@@H](C=C(COC(=O)c4ccccc4)C[C@]4(O)C(=O)C(C)=C[C@@H]34)[C@H]1OCO2,25.5
9,C=C(C)[C@]12C[C@@H](C)[C@@]3(OCc4ccccc4)[C@@H](C=C(COC(=O)c4cc(OC)c(O)cc4I)C[C@]4(O)C(=O)C(C)=C[C@@H]34)[C@H]1OCO2,15.2
10,C=C(C)[C@]12C[C@@H](C)[C@@]3(OCc4ccccc4)[C@@H](C=C(COC(=O)/C=C/c4ccc(O)c(OC)c4)C[C@]4(O)C(=O)C(C)=C[C@@H]34)[C@H]1OCO2,1.5
11,C=C(C)[C@]12C[C@@H](C)[C@@]3(OCc4ccccc4)[C@@H](C=C(COC(=O)/C=C/c4ccccc4)C[C@]4(O)C(=O)C(C)=C[C@@H]34)[C@H]1OCO2,69.5
12,C=C(C)[C@]12C[C@@H](C)[C@@]34O[C@](Cc5ccccc5)(O[C@@H]1[C@@H]3C=C(COC(=O)Cc1ccc(O)c(OC)c1)C[C@]1(O)C(=O)C(C)=C[C@@H]41)O2 [RESINIFERATOXIN],0.019
